# Measured values published in US11629171B2, “Beta-hairpin peptidomimetics” (POLYPHOR AG, priority 2017, dated 2023).
# Where a SMILES comes first, the peptide text is derived from it. Bridges are numbered along the chain shown (N, C = ends). Roman numbers before positions name the chains, in order. [ ]: non-standard residue; d: D form. dDab = NCC[C@@H](N)C(=O)O; hSer = N[C@@H](CCO)C(=O)O; Dab = NCC[C@H](N)C(=O)O; Nva = CCC[C@H](N)C(=O)O; Dap = NC[C@H](N)C(=O)O
# Tests used:
# Assay type in all cases: cell-based
# [1] = system: Acinetobacter baumannii 872842; conditions: 872842
# Summary of the method: (§1)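 Two-fold peptide dilutions in polysorbate 80-containing (0.002% final) cation-adjusted Mueller-Hinton II broth were inoculated with about 10^6 CFU/mL. The MIC was taken as the lowest concentration, in μg/mL, preventing visible growth at 18-20 hours and 35° C.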
# [2] = system: Acinetobacter baumannii DSM 30008; conditions: DSM 30008
# Summary of the method: as §1
# [3] = system: Enterobacter cloacae 848840; conditions: 848840
# Summary of the method: as §1
# Escherichia coli 926415 = conditions: 926415
# Summary of the method: as §1
# [4] = system: Escherichia coli ATCC 25922; conditions: ATCC 25922
# Summary of the method: as §1
# [5] = system: Klebsiella pneumoniae 968733; conditions: 968733
# Summary of the method: as §1
# [6] = system: Klebsiella pneumoniae SSI #3010; conditions: SSI #3010
# Summary of the method: as §1
# [7] = system: Pseudomonas aeruginosa ATCC 27853; conditions: ATCC 27853
# Summary of the method: as §1
# [8] = system: human red blood cells (hRBC); assay: Hemolysis; conditions: red cells of human, 1 h, 200
# Summary of the method: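 Percent hemolysis relative to 2% Triton X-100 (100%) and PBS/10% water (0%), from blank-corrected OD540 of diluted supernatants. Peptides tested at 200 μg/mL against 20% (v/v) washed human erythrocytes, 1 h, 37° C, shaking at 300 rpm.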
Structure (SMILES),MIC [1] [µg/mL],Acinetobacter baumannii DSM 30008 MIC [2] [µg/mL],MIC [3] [µg/mL],MIC (Escherichia coli 926415) [µg/mL],Escherichia coli ATCC 25922 MIC [4] [µg/mL],MIC [5] [µg/mL],Klebsiella pneumoniae SSI #3010 MIC [6] [µg/mL],Pseudomonas aeruginosa ATCC 27853 MIC [7] [µg/mL],Hemolysis at 200 μg/mL [8] [%]
CC(=O)N[C@H](C(=O)N[C@H]1CSSC[C@@H](C(=O)N[C@@H](CO)C(N)=O)NC(=O)[C@H](C(C)C)NC(=O)[C@H](CO)NC(=O)[C@H](Cc2c[nH]c3ccccc23)NC(=O)[C@H](CO)NC(=O)[C@@H](CCN)NC(=O)[C@H](CCC(=O)N[C@@H](CCN)C(=O)N[C@@H](CCO)C(=O)N[C@@H](CN)C(=O)N[C@H]2CCNC(=O)[C@H]([C@@H](C)O)NC(=O)[C@H](CCN)NC(=O)[C@H](CCN)NC(=O)[C@H](CC(C)C)NC(=O)[C@@H](CC(C)C)NC(=O)[C@H](CCN)NC2=O)NC(=O)[C@H](CCN)NC(=O)[C@H](Cc2ccc(O)cc2)NC1=O)C(C)C [Ex. 308] (I: Ac-VCY[Dab]E[dDab]SWSVCS-NH2 / II: [Dab][hSer][Dap][Dab][Dab][dL]L[Dab][Dab]T; disulfide I:2-I:11; amide I:5-II:N; lactam II:4-II:C),0.5,0.125,1,0.5,0.0625,1,0.25,0.125,<1
CC(=O)N[C@H](C(=O)N[C@H]1CSSC[C@@H](C(=O)N[C@@H](CO)C(N)=O)NC(=O)[C@H](C(C)C)NC(=O)[C@H](CO)NC(=O)[C@H](Cc2c[nH]c3ccccc23)NC(=O)[C@H](CO)NC(=O)[C@@H](CCN)NC(=O)[C@H](CCC(=O)N[C@@H](CCN)C(=O)N[C@H](C(=O)N[C@@H](CN)C(=O)N[C@H]2CCNC(=O)[C@H]([C@@H](C)O)NC(=O)[C@H](CCN)NC(=O)[C@H](CCN)NC(=O)[C@H](C(C)C)NC(=O)[C@@H](CC(C)C)NC(=O)[C@H](CCN)NC2=O)[C@@H](C)O)NC(=O)[C@H](CCN)NC(=O)[C@H](Cc2ccc(O)cc2)NC1=O)C(C)C [Ex. 312] (I: Ac-VCY[Dab]E[dDab]SWSVCS-NH2 / II: [Dab]T[Dap][Dab][Dab][dL]V[Dab][Dab]T; disulfide I:2-I:11; amide I:5-II:N; lactam II:4-II:C),0.0625,0.03125,0.0625,0.25,0.03125,0.125,0.0625,0.125,<1
CCC[C@@H]1NC(=O)[C@@H](CC(C)C)NC(=O)[C@H](CCN)NC(=O)[C@@H](NC(=O)[C@H](CN)NC(=O)[C@@H](NC(=O)[C@H](CCN)NC(=O)CC[C@@H]2NC(=O)[C@H](CCN)NC(=O)[C@H](Cc3ccc(O)cc3)NC(=O)[C@@H](NC(=O)[C@@H](NC(C)=O)C(C)C)CSSC[C@@H](C(=O)N[C@@H](CO)C(N)=O)NC(=O)[C@H](C(C)C)NC(=O)[C@H](CO)NC(=O)[C@H](Cc3c[nH]c4ccccc34)NC(=O)[C@H](CO)NC(=O)[C@@H](CCN)NC2=O)[C@@H](C)O)CCNC(=O)[C@H]([C@@H](C)O)NC(=O)[C@H](CCN)NC(=O)[C@H](CCN)NC1=O [Ex. 313] (I: Ac-VCY[Dab]E[dDab]SWSVCS-NH2 / II: [Dab]T[Dap][Dab][Dab][dL][Nva][Dab][Dab]T; disulfide I:2-I:11; amide I:5-II:N; lactam II:4-II:C),0.125,0.03125,0.0625,0.125,0.01562,0.125,0.0625,0.125,<1
CC(=O)N[C@@H](CC(C)C)C(=O)N[C@H]1CSSC[C@@H](C(=O)N[C@@H](CO)C(N)=O)NC(=O)[C@H](C(C)C)NC(=O)[C@H](CO)NC(=O)[C@H](Cc2c[nH]c3ccccc23)NC(=O)[C@H](CO)NC(=O)[C@@H](CCN)NC(=O)[C@H](CCC(=O)N[C@@H](CCN)C(=O)N[C@H](C(=O)N[C@@H](CN)C(=O)N[C@H]2CCNC(=O)[C@H]([C@@H](C)O)NC(=O)[C@H](CCN)NC(=O)[C@H](CCN)NC(=O)[C@H](CC(C)C)NC(=O)[C@@H](CC(C)C)NC(=O)[C@H](CCN)NC2=O)[C@@H](C)O)NC(=O)[C@H](CCN)NC(=O)[C@H](Cc2ccc(O)cc2)NC1=O [Ex. 314] (I: Ac-LCY[Dab]E[dDab]SWSVCS-NH2 / II: [Dab]T[Dap][Dab][Dab][dL]L[Dab][Dab]T; disulfide I:2-I:11; amide I:5-II:N; lactam II:4-II:C),0.0625,0.01562,0.125,0.0625,0.01562,0.125,0.125,0.25,2
